Our source for the IC50 values is patent US10894788B2, “Inhibitors of cyclin-dependent kinases” (Kinnate Biopharma Inc., priority 2018, dated 2021).

Each structure is given as a SMILES string. Bounds are passed on as bounds.

For this assay, the target named is CDK12 (Homo sapiens (Human), UniProt Q9NYV4). The assay can be described thus: Radiometric protein kinase assay (33PanQinase Activity Assay), Assay Condition B (thiol-free conditions). The format is biochemical. To be noted: thiol-free conditions (1 mM TCEP, glutathione removed). On the procedure: Example 2—Assay Condition B (Thiol-Free Conditions)
Sequence of CDK12 (Q9NYV4 whole entry): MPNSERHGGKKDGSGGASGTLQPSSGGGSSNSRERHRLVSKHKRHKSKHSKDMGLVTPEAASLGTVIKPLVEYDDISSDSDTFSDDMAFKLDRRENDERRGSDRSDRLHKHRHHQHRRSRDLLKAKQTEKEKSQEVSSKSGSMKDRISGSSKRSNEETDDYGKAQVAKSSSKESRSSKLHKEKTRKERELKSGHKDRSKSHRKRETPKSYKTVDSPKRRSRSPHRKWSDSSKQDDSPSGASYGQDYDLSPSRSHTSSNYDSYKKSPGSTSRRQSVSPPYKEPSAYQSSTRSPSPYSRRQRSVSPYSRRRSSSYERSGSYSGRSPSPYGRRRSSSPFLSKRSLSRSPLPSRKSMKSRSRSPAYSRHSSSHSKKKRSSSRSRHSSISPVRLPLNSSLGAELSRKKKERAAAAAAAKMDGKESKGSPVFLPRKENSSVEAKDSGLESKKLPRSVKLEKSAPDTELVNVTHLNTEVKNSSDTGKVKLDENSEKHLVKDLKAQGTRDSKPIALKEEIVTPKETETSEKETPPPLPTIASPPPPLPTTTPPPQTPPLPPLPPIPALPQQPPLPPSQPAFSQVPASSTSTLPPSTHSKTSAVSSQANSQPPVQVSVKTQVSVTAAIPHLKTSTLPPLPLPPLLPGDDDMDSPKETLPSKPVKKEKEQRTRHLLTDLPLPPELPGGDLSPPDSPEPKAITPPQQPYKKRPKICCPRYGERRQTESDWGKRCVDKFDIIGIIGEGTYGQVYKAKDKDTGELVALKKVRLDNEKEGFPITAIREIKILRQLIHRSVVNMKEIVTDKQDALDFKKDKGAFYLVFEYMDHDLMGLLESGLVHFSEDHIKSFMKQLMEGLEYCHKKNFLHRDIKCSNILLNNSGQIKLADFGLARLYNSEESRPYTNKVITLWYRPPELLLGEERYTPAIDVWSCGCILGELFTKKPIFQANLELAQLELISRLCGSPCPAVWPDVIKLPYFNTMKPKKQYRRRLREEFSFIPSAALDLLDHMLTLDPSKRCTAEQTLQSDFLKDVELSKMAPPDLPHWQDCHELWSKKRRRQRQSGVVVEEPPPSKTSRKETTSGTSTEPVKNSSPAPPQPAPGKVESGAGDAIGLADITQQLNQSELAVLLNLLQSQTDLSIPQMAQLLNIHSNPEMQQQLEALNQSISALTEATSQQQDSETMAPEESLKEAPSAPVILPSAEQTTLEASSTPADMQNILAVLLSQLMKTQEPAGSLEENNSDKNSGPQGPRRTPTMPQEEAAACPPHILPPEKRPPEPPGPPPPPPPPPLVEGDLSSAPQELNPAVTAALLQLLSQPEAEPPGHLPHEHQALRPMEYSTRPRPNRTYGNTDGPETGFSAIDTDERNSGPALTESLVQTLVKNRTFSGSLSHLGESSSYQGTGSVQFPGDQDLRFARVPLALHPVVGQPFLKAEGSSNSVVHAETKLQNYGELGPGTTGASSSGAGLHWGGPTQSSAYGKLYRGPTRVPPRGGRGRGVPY
Sequence of CDK12 (O75909 whole entry partner): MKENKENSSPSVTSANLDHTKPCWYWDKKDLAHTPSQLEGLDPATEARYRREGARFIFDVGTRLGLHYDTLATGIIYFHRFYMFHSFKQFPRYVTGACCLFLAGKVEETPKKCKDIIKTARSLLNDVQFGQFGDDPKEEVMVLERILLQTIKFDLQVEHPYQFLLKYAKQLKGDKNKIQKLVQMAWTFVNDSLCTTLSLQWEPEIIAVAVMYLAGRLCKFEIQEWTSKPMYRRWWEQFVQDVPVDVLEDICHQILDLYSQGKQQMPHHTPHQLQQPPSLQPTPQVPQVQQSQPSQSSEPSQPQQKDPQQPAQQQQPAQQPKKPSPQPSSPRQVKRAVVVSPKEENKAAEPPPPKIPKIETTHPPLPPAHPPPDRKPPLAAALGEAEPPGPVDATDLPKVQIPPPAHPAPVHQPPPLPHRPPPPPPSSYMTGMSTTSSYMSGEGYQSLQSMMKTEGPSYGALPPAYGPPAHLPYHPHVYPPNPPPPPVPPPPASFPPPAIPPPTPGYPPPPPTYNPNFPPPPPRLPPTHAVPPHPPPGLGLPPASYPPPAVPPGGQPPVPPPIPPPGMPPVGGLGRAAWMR
The IC50 profile of compounds was determined using one protein kinase in a customized, thiol free assay. […] Prior to testing, the 1×10^−03 M stock solutions in column 2 of the master plates were subjected to a serial, semi-logarithmic dilution using 100% DMSO as a solvent. […] Column 1 and 7 were filled with 100% DMSO as controls. Subsequently, 2×10 microliter from each well of the serial diluted copy plates were aliquoted with a 96 channel pipettor into two identical sets of “compound dilution plates”. All plates were barcoded for automated identification and tracking purposes. […] All compounds were stored as powder until being solubilized in DMSO. Solubilized compounds were stored as 1×10^−02 M/100% DMSO stock solutions. Prior to the assay process, 90 microliters of H2O were added to each well of a set of compound dilution plates. To minimize potential precipitation, the H2O was added to each plate only a few minutes before the transfer of the compound solutions into the assay plates. Each plate was shaken thoroughly, resulting in compound dilution plates with a final of 10% DMSO. For each assay, 5 microliters of solution from each well of the compound dilution plates/10% DMSO were transferred into the assay plate. The final volume of the assay was 50 μl. All compounds were tested at 10 final assay concentrations in the range from 1×10^−05 M to 3×10^−10 M, in singlicate. The final DMSO concentration in the reaction cocktails was 1% in all cases. A radiometric protein kinase assay (33PanQinase® Activity Assay) was used for measuring the kinase activity of the protein kinase. All kinase assays were performed in 96-well FlashPlates™ from PerkinElmer (Boston, Mass., USA) in a 50 microliter reaction volume. The reaction cocktail was pipetted in four steps in the following order: 20 microliter of assay buffer (standard buffer)·5 microliter of ATP solution (in H2O)·5 microliter of test compound (in 10% DMSO)·20 microliter enzyme/substrate mix. […] For all experiments labeled as “Thiol-free”, all glutathione was exchanged from protein preparations so as to be removed from the assay and final buffer conditions contained no thiol-containing reagents. This was done so there would be no interference with the key cysteines in the proteins of interest.
For data analysis, the median value of the counts in column 1 (n=8) of each assay plate was defined as “low control”. This value reflects unspecific binding of radioactivity to the plate in the absence of a protein kinase but in the presence of the substrate. The median value of the counts in column 7 of each assay plate (n=8) was taken as the “high control”, i.e. full activity in the absence of any inhibitor. The difference between high and low control was taken as 100% activity. As part of the data evaluation the low control value from a particular plate was subtracted from the high control value as well as from all 80 “compound values” of the corresponding plate. The residual activity (in %) for each well of a particular plate was calculated by using the following formula: Res. Activity (%)=100×[(cpm of compound−low control)/(high control−low control)]
The residual activities for each concentration and the compound IC50 values were calculated using Quattro Workflow V3.1.1 (Quattro Research GmbH, Munich, Germany; www.quattro-research.com). […] The fitting method used was a least-squares fit. As a parameter for assay quality, the Z′-factor (Zhang et al., J. Biomol. Screen. 2: 67-73, 1999) for the low and high controls of each assay plate (n=8) was used. ProQinase's criterion for repetition of an assay plate is a Z′-factor below 0.4 (Iversen et al., J. Biomol. Screen. 3: 247-252, 2006).
With `CCC(=O)Nc1ccc(C(=O)N2CC[C@@H](Nc3nccc(-c4cn[nH]c4)n3)C2)cc1` [Example 43], the IC50 lay in the range of 1 to 10 µM.
To `C=CC(=O)Nc1ccc(C(=O)N2CCC[C@@H](Nc3nccc(-c4ccnn4C)n3)C2)cc1` [Example 35, (R)—N-(4-(3-((4-(1-methyl-1H-pyrazol-5-yl)pyrimidin-2-yl)amino)piperidine-1-carbonyl)phenyl)acrylamide] belongs 30 to 100 µM; to `C=CC(=O)Nc1ccc(C(=O)N2CC[C@@H](Nc3ncc(Cl)c(OC)n3)C2)cc1N1CCN(C)CC1` [Example 78, (R)—N-(4-(3-((5-chloro-4-methoxypyrimidin-2-yl)amino)pyrrolidine-1-carbonyl)-2-(4-methylpiperazin-1-yl)phenyl)acrylamide], < 0.1 µM.
`C=CC(=O)Nc1ncc(C(=O)N2CC[C@@H](Nc3ncc(Cl)c(OC)n3)C2)s1` [Example 73, (R)—N-(5-(3-((5-chloro-4-methoxypyrimidin-2-yl)amino)pyrrolidine-1-carbonyl)thiazol-2-yl)acrylamide] returned an IC50 of 0.1 to 1 µM.
To `C=CC(=O)Nc1ccc(C(=O)N2CC[C@@H](Nc3nccc(-c4cncs4)n3)C2)cc1` (stereo in doubt) [Example 48, N-{4-[3-(4-Thiazol-5-yl-pyrimidin-2-ylamino)-pyrrolidine-1-carbonyl]-phenyl}-acrylamide] belongs 0.1 to 1 µM; to `C=CC(=O)Nc1ccc(C(=O)N2CC[C@@H](Nc3ncc(Cl)c(OC)n3)C2)cc1N1CCCCC1` [Example 74, (R)—N-(4-(3-((5-chloro-4-methoxypyrimidin-2-yl)amino)pyrrolidine-1-carbonyl)-2-(piperidin-1-yl)phenyl)acrylamide], < 0.1 µM; to `C=CS(=O)(=O)Nc1ccc(C(=O)N2CC[C@@H](Nc3ncc(Cl)cn3)C2)cc1` [Example 84, (R)—N-(4-(3-((5-chloropyrimidin-2-yl)amino)pyrrolidine-1-carbonyl)phenyl)ethenesulfonamide], 0.1 to 1 µM.
To `C=CC(=O)N1CCOc2cc(C(=O)N3CC[C@@H](Nc4ncc(Cl)cn4)C3)ccc21` [Example 34, (R)-1-(7-(3-((5-chloropyrimidin-2-yl)amino)pyrrolidine-1-carbonyl)-2H-benzo[b][1,4]oxazin-4(3H)-yl)prop-2-en-1-one] belongs 0.1 to 1 µM; to `C=CC(=O)Nc1ccc(C(=O)N2CC[C@@H](Nc3cnc(C)cn3)C2)cc1` [Example 61, (R)—N-(4-(3-((5-methylpyrazin-2-yl)amino)pyrrolidine-1-carbonyl)phenyl)acrylamide], 1 to 10 µM; to `C=CC(=O)Nc1ccc(C(=O)N2CC[C@@H](Nc3ncc(C)c(OC4CC4)n3)C2)cc1` [Example 22, (R)—N-(4-(3-((4-cyclopropoxy-5-methylpyrimidin-2-yl)amino)pyrrolidine-1-carbonyl)phenyl)acrylamide], 0.1 to 1 µM.
In the case of `C=CC(=O)Nc1ccc(C(=O)N2CC[C@@H](Nc3ncc(C)c(OC4CC4)n3)C2)cc1` [Example 81, (R)—N-(4-(3-((4-cyclopropoxy-5-methylpyrimidin-2-yl)amino)pyrrolidine-1-carbonyl)phenyl)acrylamide] it was 0.1 to 1 µM; in that of `C=CC(=O)N1CCOc2cc(C(=O)N3CC[C@@H](Nc4ncc(Cl)cn4)C3)ccc21` [Example 51, (R)-1-(7-(3-((5-chloropyrimidin-2-yl)amino)pyrrolidine-1-carbonyl)-2H-benzo[b][1,4]oxazin-4(3H)-yl)prop-2-en-1-one], 0.1 to 1 µM.
`C=CC(=O)N1CCCc2cc(C(=O)N3CC[C@@H](Nc4ncc(Cl)c(OC)n4)C3)ccc21` [Example 65, (R)-1-(6-(3-((5-chloro-4-methoxypyrimidin-2-yl)amino)pyrrolidine-1-carbonyl)-3,4-dihydroquinolin-1(2H)-yl)prop-2-en-1-one]: the IC50 is < 0.1 µM.
Regarding `C=CC(=O)Nc1ccc(C(=O)N2CC[C@@H](Nc3ncc(Cl)c(OC)n3)C2)cc1Cl` [Example 5, (R)-N-(2-chloro-4-(3-((5-chloro-4-methoxypyrimidin-2-yl)amino)pyrrolidine-1-carbonyl)phenyl)acrylamide], the IC50 was < 0.1 µM.
To `C=CC(=O)N1CCc2cc(C(=O)N3CC[C@@H](Nc4ncc(Cl)cn4)C3)ccc21` [Example 30, (R)-1-(5-(3-((5-chloropyrimidin-2-yl)amino)pyrrolidine-1-carbonyl)indolin-1-yl)prop-2-en-1-one] belongs < 0.1 µM.
In the case of `C=CC(=O)Nc1ccc(C(=O)N2CC[C@@H](Nc3ncc(F)c(OC4CC4)n3)C2)cc1` [Example 23, (R)—N-(4-(3-((4-cyclopropoxy-5-fluoropyrimidin-2-yl)amino)pyrrolidine-1-carbonyl)phenyl)acrylamide] it was 0.1 to 1 µM.
Turning to `C=CC(=O)Nc1ccc(C(=O)N2CC[C@@H](Nc3ncc(Cl)cn3)C2)cc1-c1cnn(C)c1` [Example 12, (R)—N-(4-(3-((5-chloropyrimidin-2-yl)amino)pyrrolidine-1-carbonyl)-2-(1-methyl-1H-pyrazol-4-yl)phenyl)acrylamide], the IC50 fell in the range of 0.1 to 1 µM.
As for `C=CC(=O)Nc1ccc(C(=O)N2CCC[C@@H](Nc3nccc(OC4CCCC4)n3)C2)cc1` [Example 40, (R)—N-(4-(3-((4-(cyclopentyloxy)pyrimidin-2-yl)amino)piperidine-1-carbonyl)phenyl)acrylamide], the IC50 lay in the range of 10 to 30 µM.
To `C=CC(=O)Nc1ccc(C(=O)N2CC[C@@H](Nc3cnc(C(F)(F)F)cn3)C2)cc1` [Example 60, (R)—N-(4-(3-((5-(trifluoromethyl)pyrazin-2-yl)amino)pyrrolidine-1-carbonyl)phenyl)acrylamide] belongs 0.1 to 1 µM; to `C=CC(=O)Nc1ccc(C(=O)N2CC[C@@H](Nc3ncc(Cl)c(OC4CC4)n3)C2)cc1` [Example 21, (R)—N-(4-(3-((5-chloro-4-cyclopropoxypyrimidin-2-yl)amino)pyrrolidine-1-carbonyl)phenyl)acrylamide], < 0.1 µM; to `C=CC(=O)Nc1ccc(C(=O)N2CC[C@@H](Nc3ncc(Cl)c(C)n3)C2)cc1C` [Example 80, (R)—N-(4-(3-((5-chloro-4-methylpyrimidin-2-yl)amino)pyrrolidine-1-carbonyl)-2-methylphenyl)acrylamide], 0.1 to 1 µM.
Take `CCC(=O)Nc1ccc(C(=O)N2CC[C@@H](Nc3ncc(F)c(OC4CC4)n3)C2)cc1` [Example 13, (R)—N-(4-(3-((4-cyclopropoxy-5-fluoropyrimidin-2-yl)amino)pyrrolidine-1-carbonyl)phenyl)propionamide]: the IC50 was 1 to 10 µM.
In the case of `C=CC(=O)N1CCOc2cc(C(=O)N3CC[C@@H](Nc4ncc(Cl)c(OC)n4)C3)ccc21` [Example 2, (R)-1-(7-(3-((5-chloro-4-methoxypyrimidin-2-yl)amino)pyrrolidine-1-carbonyl)-2H-benzo[b][1,4]oxazin-4(3H)-yl)prop-2-en-1-one] it was 0.1 to 1 µM; in that of `C=CC(=O)Nc1ccc(C(=O)N2CC[C@@H](Nc3ncc(Cl)c(OC)n3)C2)cc1OC` [Example 1, (R)-N-(4-(3-((5-chloro-4-methoxypyrimidin-2-yl)amino)pyrrolidine-1-carbonyl)-2-methoxyphenyl)acrylamide], < 0.1 µM; in that of `C=CC(=O)Nc1ccc(C(=O)N2CC[C@@H](Nc3nccc(OC4CCCC4)n3)C2)cc1` (stereo in doubt) [Example 45, N-{4-[3-(4-Cyclopentyloxy-pyrimidin-2-ylamino)-pyrrolidine-1-carbonyl]-phenyl}-acrylamide], 0.1 to 1 µM.
`C=CC(=O)Nc1ccc(C(=O)N2CC[C@@H](Nc3ccc(Cl)cn3)C2)cc1` [Example 64, (R)—N-(4-(3-((5-chloropyridin-2-yl)amino)pyrrolidine-1-carbonyl)phenyl)acrylamide] came in with a half-inhibitory concentration (IC50) of 0.1 to 1 µM.

The term IC50 denotes the midpoint of a concentration-inhibition curve. The low end stands for greater potency, the high end for weaker potency.
